Source: the NIST ThermoML archive (doi:10.1016/j.tca.2006.04.001)
± gives the expanded uncertainty stated by the source.

Conditions: Liquid, Pycnometric method

## CCCCCCCCCCCCCCCCCCC [nonadecane]
305.45 K
  specific volume: 0.0013 ± 1.9e-05 m3/kg
307.55 K
  specific volume: 0.001303 ± 2e-05 m3/kg
309.55 K
  specific volume: 0.001304 ± 2e-05 m3/kg
311.65 K
  specific volume: 0.001304 ± 2e-05 m3/kg
313.65 K
  specific volume: 0.001307 ± 2e-05 m3/kg
315.75 K
  specific volume: 0.001309 ± 2e-05 m3/kg
317.75 K
  specific volume: 0.001311 ± 2e-05 m3/kg
319.85 K
  specific volume: 0.001313 ± 2e-05 m3/kg
321.95 K
  specific volume: 0.001316 ± 2e-05 m3/kg
323.95 K
  specific volume: 0.001319 ± 2e-05 m3/kg
326.05 K
  specific volume: 0.001322 ± 2e-05 m3/kg
328.05 K
  specific volume: 0.001321 ± 2e-05 m3/kg
330.15 K
  specific volume: 0.001324 ± 2e-05 m3/kg
332.25 K
  specific volume: 0.001327 ± 2e-05 m3/kg
334.25 K
  specific volume: 0.001329 ± 2e-05 m3/kg
336.35 K
  specific volume: 0.001331 ± 2e-05 m3/kg
338.35 K
  specific volume: 0.001335 ± 2e-05 m3/kg
340.45 K
  specific volume: 0.001337 ± 2e-05 m3/kg
342.55 K
  specific volume: 0.001339 ± 2e-05 m3/kg
344.55 K
  specific volume: 0.001338 ± 2e-05 m3/kg
346.65 K
  specific volume: 0.001344 ± 2e-05 m3/kg
348.65 K
  specific volume: 0.001345 ± 2e-05 m3/kg
350.75 K
  specific volume: 0.001346 ± 2e-05 m3/kg
352.85 K
  specific volume: 0.001348 ± 2e-05 m3/kg
354.85 K
  specific volume: 0.001353 ± 2e-05 m3/kg
356.95 K
  specific volume: 0.001355 ± 2e-05 m3/kg
358.95 K
  specific volume: 0.001357 ± 2e-05 m3/kg
361.05 K
  specific volume: 0.001359 ± 2e-05 m3/kg
363.15 K
  specific volume: 0.001362 ± 2.1e-05 m3/kg
365.15 K
  specific volume: 0.001365 ± 2.1e-05 m3/kg
367.25 K
  specific volume: 0.001368 ± 2.1e-05 m3/kg
369.25 K
  specific volume: 0.00137 ± 2.1e-05 m3/kg
371.35 K
  specific volume: 0.001373 ± 2.1e-05 m3/kg
373.45 K
  specific volume: 0.001374 ± 2.1e-05 m3/kg
375.45 K
  specific volume: 0.001376 ± 2.1e-05 m3/kg
377.55 K
  specific volume: 0.001379 ± 2.1e-05 m3/kg
379.55 K
  specific volume: 0.001382 ± 2.1e-05 m3/kg
381.65 K
  specific volume: 0.001385 ± 2.1e-05 m3/kg
383.75 K
  specific volume: 0.001389 ± 2.1e-05 m3/kg
385.75 K
  specific volume: 0.001391 ± 2.1e-05 m3/kg
387.85 K
  specific volume: 0.001394 ± 2.1e-05 m3/kg
389.85 K
  specific volume: 0.001396 ± 2.1e-05 m3/kg
391.95 K
  specific volume: 0.001401 ± 2.1e-05 m3/kg
393.95 K
  specific volume: 0.001404 ± 2.1e-05 m3/kg
396.05 K
  specific volume: 0.001405 ± 2.1e-05 m3/kg
398.15 K
  specific volume: 0.001405 ± 2.1e-05 m3/kg
400.15 K
  specific volume: 0.00141 ± 2.1e-05 m3/kg
402.25 K
  specific volume: 0.001412 ± 2.1e-05 m3/kg
404.25 K
  specific volume: 0.001415 ± 2.1e-05 m3/kg
406.35 K
  specific volume: 0.001418 ± 2.1e-05 m3/kg
408.45 K
  specific volume: 0.001422 ± 2.1e-05 m3/kg
410.45 K
  specific volume: 0.001426 ± 2.1e-05 m3/kg
412.55 K
  specific volume: 0.001429 ± 2.2e-05 m3/kg
414.55 K
  specific volume: 0.001434 ± 2.2e-05 m3/kg
416.65 K
  specific volume: 0.001436 ± 2.2e-05 m3/kg
418.75 K
  specific volume: 0.001439 ± 2.2e-05 m3/kg
420.75 K
  specific volume: 0.001439 ± 2.2e-05 m3/kg
422.85 K
  specific volume: 0.001442 ± 2.2e-05 m3/kg
424.85 K
  specific volume: 0.001447 ± 2.2e-05 m3/kg
426.95 K
  specific volume: 0.00145 ± 2.2e-05 m3/kg
429.05 K
  specific volume: 0.001452 ± 2.2e-05 m3/kg
431.05 K
  specific volume: 0.001456 ± 2.2e-05 m3/kg
433.15 K
  specific volume: 0.001457 ± 2.2e-05 m3/kg
435.15 K
  specific volume: 0.001461 ± 2.2e-05 m3/kg
437.25 K
  specific volume: 0.001464 ± 2.2e-05 m3/kg
439.35 K
  specific volume: 0.001466 ± 2.2e-05 m3/kg
441.35 K
  specific volume: 0.001469 ± 2.2e-05 m3/kg
443.45 K
  specific volume: 0.001475 ± 2.2e-05 m3/kg
445.45 K
  specific volume: 0.001479 ± 2.2e-05 m3/kg
447.55 K
  specific volume: 0.001481 ± 2.2e-05 m3/kg
449.65 K
  specific volume: 0.001485 ± 2.2e-05 m3/kg
451.65 K
  specific volume: 0.001485 ± 2.2e-05 m3/kg
453.75 K
  specific volume: 0.001492 ± 2.3e-05 m3/kg
455.75 K
  specific volume: 0.001495 ± 2.3e-05 m3/kg
457.85 K
  specific volume: 0.001498 ± 2.3e-05 m3/kg
459.95 K
  specific volume: 0.001504 ± 2.3e-05 m3/kg
461.95 K
  specific volume: 0.001506 ± 2.3e-05 m3/kg
464.05 K
  specific volume: 0.001508 ± 2.3e-05 m3/kg
466.05 K
  specific volume: 0.001514 ± 2.3e-05 m3/kg
468.15 K
  specific volume: 0.001514 ± 2.3e-05 m3/kg
470.25 K
  specific volume: 0.00152 ± 2.3e-05 m3/kg
472.25 K
  specific volume: 0.001523 ± 2.3e-05 m3/kg
474.35 K
  specific volume: 0.001527 ± 2.3e-05 m3/kg
476.35 K
  specific volume: 0.00153 ± 2.3e-05 m3/kg
478.45 K
  specific volume: 0.001533 ± 2.3e-05 m3/kg
480.45 K
  specific volume: 0.001536 ± 2.3e-05 m3/kg
482.55 K
  specific volume: 0.001543 ± 2.3e-05 m3/kg
484.65 K
  specific volume: 0.001546 ± 2.3e-05 m3/kg
486.65 K
  specific volume: 0.001549 ± 2.3e-05 m3/kg
488.75 K
  specific volume: 0.001549 ± 2.3e-05 m3/kg
490.75 K
  specific volume: 0.001557 ± 2.3e-05 m3/kg
492.85 K
  specific volume: 0.00156 ± 2.3e-05 m3/kg
494.95 K
  specific volume: 0.001563 ± 2.3e-05 m3/kg
496.95 K
  specific volume: 0.001566 ± 2.4e-05 m3/kg
499.05 K
  specific volume: 0.001569 ± 2.4e-05 m3/kg
501.05 K
  specific volume: 0.001575 ± 2.4e-05 m3/kg
503.15 K
  specific volume: 0.001578 ± 2.4e-05 m3/kg
505.25 K
  specific volume: 0.001582 ± 2.4e-05 m3/kg
507.25 K
  specific volume: 0.001586 ± 2.4e-05 m3/kg
509.35 K
  specific volume: 0.001592 ± 2.4e-05 m3/kg
511.35 K
  specific volume: 0.001594 ± 2.4e-05 m3/kg
513.45 K
  specific volume: 0.001599 ± 2.4e-05 m3/kg
515.55 K
  specific volume: 0.001604 ± 2.4e-05 m3/kg
517.55 K
  specific volume: 0.001609 ± 2.4e-05 m3/kg
519.65 K
  specific volume: 0.001609 ± 2.4e-05 m3/kg
521.65 K
  specific volume: 0.001615 ± 2.4e-05 m3/kg
523.75 K
  specific volume: 0.00162 ± 2.4e-05 m3/kg
525.85 K
  specific volume: 0.001625 ± 2.4e-05 m3/kg
531.35 K
  specific volume: 0.001634 ± 2.5e-05 m3/kg
533.25 K
  specific volume: 0.001639 ± 2.5e-05 m3/kg
535.25 K
  specific volume: 0.001641 ± 2.5e-05 m3/kg
537.15 K
  specific volume: 0.001646 ± 2.5e-05 m3/kg
539.15 K
  specific volume: 0.001649 ± 2.5e-05 m3/kg
541.05 K
  specific volume: 0.001653 ± 2.5e-05 m3/kg
543.05 K
  specific volume: 0.001659 ± 2.5e-05 m3/kg
544.95 K
  specific volume: 0.001663 ± 2.5e-05 m3/kg
546.85 K
  specific volume: 0.001667 ± 2.5e-05 m3/kg
548.85 K
  specific volume: 0.00167 ± 2.5e-05 m3/kg
550.75 K
  specific volume: 0.001676 ± 2.5e-05 m3/kg
552.75 K
  specific volume: 0.00168 ± 2.5e-05 m3/kg
554.65 K
  specific volume: 0.001683 ± 2.5e-05 m3/kg
556.65 K
  specific volume: 0.001687 ± 2.5e-05 m3/kg
558.55 K
  specific volume: 0.001692 ± 2.5e-05 m3/kg
560.45 K
  specific volume: 0.001697 ± 2.6e-05 m3/kg
562.45 K
  specific volume: 0.001702 ± 2.6e-05 m3/kg
564.35 K
  specific volume: 0.001707 ± 2.6e-05 m3/kg
566.35 K
  specific volume: 0.001711 ± 2.6e-05 m3/kg
568.25 K
  specific volume: 0.001717 ± 2.6e-05 m3/kg
570.25 K
  specific volume: 0.001722 ± 2.6e-05 m3/kg
572.15 K
  specific volume: 0.001725 ± 2.6e-05 m3/kg
574.05 K
  specific volume: 0.001732 ± 2.6e-05 m3/kg
576.05 K
  specific volume: 0.001737 ± 2.6e-05 m3/kg
